According to patent publication US9167816B2, “Antimicrobial composition for inhibiting microbial organisms and the method thereof” (National Taiwan University, priority 2013, dated 2015):
No end group written: not given here.

Experiments:
[1] = tested on: all assayed bacterial species (six bacterial species); format: cell-based
Method: (§1) (A) Bacterial growth inhibited by LsGRP1-derived peptides. The bacterial suspension with an OD600 of 0.15 was treated with 2.5 mg/ml peptide solution for 90 min, and the CFUs in each peptide sample were measured at 20-24 h post treatment by serial-dilution plating Inhibition of bacterial growth (%)=[(CFUs in water treatment−CFUs in peptide treatment)/CFUs in water treatment]×100%. (B) Spore germination of plant fungal pathogens inhibited by LsGRP1-derived peptides. Fungal spores with a concentration of 1×10^5 spores/ml were treated with 2.5 mg/ml peptide for 16-20 h before the observation of spore germination under light microscope. Inhibition of fungal spore germination (%)=[(Number of spores germinating in water−Number of spores germinating in peptide solution)/Number of spores germinating in water]×100%.
(§2) The bacterial strains used in this invention included Agrobacterium tumefaciens C58C^1 (Van Larebeke et al., 1974), Bacillus subtilis 28-4, Escherichia coli DH5α (Invitrogen), Dickeya chrysanthemi TA1, Pseudomonas syringae pv. syringae 61 (Huang et al., 1988), and Xanthomonas campestris XCP3. […]
(§3) The antibacterial and antifungal activities of these peptides were determined by measuring the inhibition rate of bacterial growth and fungal spore germination. […] After incubation for 20-24 h, the colony-forming units (CFUs) in each peptide-treated sample were quantified. […]

E. coli DH5α = format: cell-based, Escherichia coli; settings: Inhibition of bacterial growth (OD600 = 0.15)
Method: as §1, §2, §3

B. subtilis 28-4 = format: cell-based, Bacillus subtilis; settings: Inhibition of bacterial growth (OD600 = 0.15)
Method: as §1, §2, §3

A. tumefaciens C58C^1 = format: cell-based, Agrobacterium tumefaciens
Method: as §1, §2, §3

X. campestris XCP3 = format: cell-based, Xanthomonas campestris
Method: as §1, §2, §3

A. brassicicola Ac1 = format: cell-based, Alternaria brassicicola; settings: Inhibition of fungal spore germination at 5 × 10^4 spores/ml
Method: as §1
(§4) The fungi used in this study included Alternaria brassicicola Ac1, Botrytis cinerea B-134, Botrytis elliptica B061, Colletotrichum acutatum HL1, and Colletotrichum gleosporioides MT1. […]
as §3

B. elliptica B061 = format: cell-based, Botrytis elliptica; settings: Inhibition of fungal spore germination at 5 × 10^4 spores/ml
Method: as §1, with “Fungal spores with a concentration of 1×10^5 spores/ml were treated with 2.5 mg/ml peptide for 16-20 h before the observation of spore germination under light microscope.” left out
as §4, §3

C. acutatum HL1 = format: cell-based, Colletotrichum acutatum; settings: Inhibition of fungal spore germination at 5 × 10^4 spores/ml
Method: as §1, with “Fungal spores with a concentration of 1×10^5 spores/ml were treated with 2.5 mg/ml peptide for 16-20 h before the observation of spore germination under light microscope.” left out
as §4, §3

[2] = tested on: P. syringae pv. syringae 61; format: cell-based, Pseudomonas syringae pv. syringae; settings: Inhibition of bacterial growth (OD600 = 0.15)
Method: as §1, §2, §3

B. elliptica = assay: H2DCFDA staining (reactive oxygen species accumulation), non-germinating spores; format: cell-based, Botrytis elliptica; settings: 50 μg/ml, 2 h
Method: (§5) The fungal spores (A) and hyphae (B) were treated with 50 μg/ml LsGRP1^C for 2 h and 16 h, respectively. Then membrane permeability, chromatin condensation and reactive oxygen species accumulation of treated spores and hyphae were assayed by staining with SYTOX Green, DAPI and H2DCFDA, respectively. Sterile deionized water was used instead of LsGRP1^C as a control. Bar=20 μm (A) or 50 μm (B).
(§6) Fungal spore and hyphae were treated with 50 μg/ml peptide solution for 2 h and 16 h, respectively. Then the fungal cells were stained with 10 μM 2′,7′-dichlorodihydrofluorescein diacetate (H2DCFDA) in the dark for 60 min before observation under Leica DMIL florescent microscope equipped with a Chroma 41012 filter set. Sterile deionized water was used instead of peptide solution as a control.

B. cinerea B-134 = format: cell-based, Botrytis cinerea
Method: as §1, §4, §3

assayed fungal species = assay: Growth inhibition assay, fungal spore germination, statements on the assayed fungal species; format: cell-based
Method: as §1, §4, §3

[3] = tested on: spores and hyphae of A. brassicicola Ac1, B. cinerea B-134, B. elliptica B061 and C. acutatum HL1; assay: Light microscopy of treated fungal spores and hyphae; format: cell-based; settings: 50 μg/ml; spores 2 h, hyphae 16 h
P. syringae = assay: Disease suppression assay, bacterial leaf spot in tomato; format: in vivo, Pseudomonas syringae on tomato leaves; settings: 6 days after inoculation
Method: (§7) The synthetic LsGRP1^C solutions of 2.5, 0.25 or 0.025 mg/ml were used. LsGRP1^C solution was dropped onto the surface of cabbage leaves. Meanwhile 5 μl spore suspension of A. brassicicola (2×10^5 conidia/ml), a fungal pathogen of cabbage black spot, was mixed with LsGRP1^C solution. In addition, fungal spore suspension was deposited before or after LsGRP1^C application. On the other hand, synthetic LsGRP1^C solution was dropped onto strawberry flowers, and then mixed with spore suspension of B. cinerea (2×10^5 conidia/ml). Similarly, synthetic LsGRP1^C solution was dropped onto tomato leaves, and then mixed with bacterial suspension of P. syringae (10^7 CFU/ml). Sterile water was used instead of LsGRP1^C solution as a control. Lesion development was examined visually.
LsGRP1^C solution (10 μl each) was dropped onto wounded tissues of tomato leaves, mixed with 10 μl bacterial suspension (10^7 CFU/ml) of pathogenic P. syringae, and then lesion development was examined 6 days after bacterial inoculation.

A. brassicicola = assay: Disease suppression assay, cabbage black spot; format: in vivo, Alternaria brassicicola on cabbage leaves; settings: 7 days after inoculation
Method: as §7
Fungal inoculation was two days (−2) or one day (−1) before treatment besides at same time of the treatment. Fungal inoculation was also performed two day (2) or one day (1) after treatment.

D. chrysanthemi TA1 = format: cell-based, Dickeya chrysanthemi; settings: 2500 μg/ml peptide, 90 min, CFUs at 20-24 h
Method: as §1, §2, §3

C. gleosporioides MT1 = format: cell-based, Colletotrichum gleosporioides; settings: 2.5 mg/ml peptide, 16-20 h, 1×10^5 spores/ml
Method: as §1, §4, §3

B. cinerea = assay: Disease suppression assay, gray mold; format: in vivo, Botrytis cinerea on strawberry and orchid flowers; settings: different concentrations
Method: as §7
Synthetic LsGRP1^C solution (1 μl each) was dropped onto strawberry flowers, then mixed with 1 μl spore suspension of B. cinerea. […] LsGRP1^C solution (5 μl each) was dropped onto orchid flowers, then mixed with 5 μl spore suspension of B. cinerea.

[4] = tested on: spores and hyphae of A. brassicicola Ac1, B. cinerea B-134, B. elliptica B061 and C. acutatum HL1; assay: DAPI staining of fungal spores and hyphae (chromatin condensation); format: cell-based; settings: 50 μg/ml; spores 2 h, hyphae 16 h
Method: as §5
Fungal spore and hyphae were treated with 50 μg/ml peptide solution for 2 h and 16 h, respectively. Then the fungal cells were stained with 4′,6′-diamidino-2-phenylindole (DAPI) at a final concentration of 1 μg/ml in the dark for 10 min before observation under Leica DMIL florescent microscope equipped with a Leica A filter set (BP340-380 nm, DM 400 nm, LP425 nm). Sterile deionized water was used instead of the peptide solution as a control.

[5] = tested on: assayed microbes (bacterial and fungal species); format: cell-based
Method: The antibacterial and antifungal activities of these peptides were determined by measuring the inhibition rate of bacterial growth and fungal spore germination. Bacterial suspensions with an OD600 at 0.15 were treated with peptide solution for 90 min, then serially diluted and plated on LB media. After incubation for 20-24 h, the colony-forming units (CFUs) in each peptide-treated sample were quantified. The inhibition of bacterial growth (%)=[(CFUs in water treatment−CFUs in peptide treatment)/CFUs in water treatment]×100%. On the other hand, fungal spore suspensions of 1×10^5 spores/ml were treated with peptide solutions for 16-20 h, and then the spore germinations were examined under microscope. The germ tube greater than two times of spore length was considered germinated Inhibition of fungal spore germination (%)=[(Number of the spores germinating in water−Number of the spores germinating in peptide solution)/Number of the spores germinating in water]×100%. Sterile deionized water replaced the peptide solution as a control treatment. All assays were performed in triplicate. Based on the data, the concentrations of peptide for 50% growth inhibition (IC50) of each microbe were determined.
According to the IC50 values of LsGRP1^C on different bacterial and fungal species, the antimicrobial potency of LsGRP1^C was verified.

[6] = tested on: A. brassicicola Ac1, B. cinerea B-134, B. elliptica B061 and C. acutatum HL1; assay: H2DCFDA staining (reactive oxygen species accumulation), germinating spores; format: cell-based; settings: 50 μg/ml
Method: as §5, §6

[7] = 2500 μg/ml peptide, 90 min, CFUs at 20-24 h
[8] = Inhibition of bacterial growth (OD600 = 0.15)

GRELAEETKENTEKRATEAGVADQKY [LsGRP1^N]
Inhibition of bacterial growth on all assayed bacterial species ([1]; 2500 μg/ml, 90 min, CFUs at 20-24 h, all six species): more than 99.5%
IC50 on all assayed bacterial species except A. tumefaciens C58C^1 ([1]; summary bound of Table 1): lower than 32.19 μg/ml
IC50 (E. coli DH5α): 9.67 µg/mL
IC50 (B. subtilis 28-4): 23.32 µg/mL
Inhibition of bacterial growth (A. tumefaciens C58C^1; [7]): over 98.5%
IC50 (A. tumefaciens C58C^1; [8]): 71.79 µg/mL
Inhibition of bacterial growth (X. campestris XCP3; [7]): 69.6%
IC50 (X. campestris XCP3; [8]): 32.19 µg/mL
IC50 (A. brassicicola Ac1): 54.80 µg/mL
IC50 (B. elliptica B061): 86.13 µg/mL
IC50 (C. acutatum HL1): 17.39 µg/mL
IC50 [2]: 20.63 µg/mL
ROS accumulation (H2DCFDA) in non-germinating spores (B. elliptica): present
Inhibition of fungal spore germination (B. cinerea B-134; 2.5 mg/ml peptide, 16-20 h, 1×10^5 spores/ml): not affected
IC50 (B. cinerea B-134; Inhibition of fungal spore germination at 5 × 10^4 spores/ml): 58.26 µg/mL
Inhibition of fungal spore germination, fungi other than B. elliptica B061 (assayed fungal species; 2.5 mg/ml peptide, 16-20 h, with the exception of B. elliptica B061): did not inhibit spore germination
IC50 on the assayed fungal species except B. elliptica (assayed fungal species; summary bound of Table 1): below 58.26 μg/ml
morphology of spores and hyphae under light microscope [3]: abnormal blebbing and shrinkage
lesion development of bacterial leaf spot in tomato (P. syringae; 0.025 mg/ml): could inhibit lesion development
lesion development of bacterial leaf spot in tomato (P. syringae; 0.25 mg/ml): could inhibit lesion development
suppression of lesion development of cabbage black spot (A. brassicicola; 0.025 mg/ml, fungal inoculation 2 days before treatment): did not occur
lesion development of cabbage black spot (A. brassicicola; 0.25 mg/ml, treatment at same time or 1-2 day before/after inoculation): could be inhibited
Inhibition of bacterial growth (D. chrysanthemi TA1): over 98.5%
Inhibition of fungal spore germination (C. gleosporioides MT1): not affected
lesion development of orchid gray mold (B. cinerea; orchid flowers, 9 days after inoculation): could be suppressed
lesion development of strawberry gray mold (B. cinerea; strawberry flowers, 3 days after inoculation): could be suppressed
DAPI staining, nuclear chromatin condensation [4]: nuclear chromatin condensation
IC50 on all assayed microbes [5]: below 86.13 μg/ml
ROS accumulation (H2DCFDA) in germinating spores [6]: visualized
